Holding throughout (experiment): NCI anticancer screen, dose series, 48 h
The subject of assay [1] is UACC-257.
Assay [2] has as its system OVCAR-8.
The test system of assay [3] is NCI-H23.
For assay [4], the system named is DU-145.
The test system of assay [5] is SK-MEL-28.
The test system of assay [6] is HL-60.
The subject of assay [7] is Malme-3M.
Assay [8] concerns SNB-75.
Assay [9] relates to SF-539.
The test system of assay [10] is SR.
The test system of assay [11] is MDA-MB-435.
Assay [12] relates to SW-620.
The test system of assay [13] is OVCAR-3.
In assay [14] the test system is NCI-H226.
In assay [15] the test system is RXF 393.
Assay [16] concerns PC-3.
The test system of assay [17] is OVCAR-4.
Assay [18] deals with SK-OV-3.
The subject of assay [19] is UACC-62.
Assay [20] deals with HOP-92.

Experimental findings from ChEMBL document CHEMBL1201862, “PubChem BioAssay data set” (2004) are described below.

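Following 48 hours of exposure in 96-well plates, responses at five concentrations were used to interpolate endpoints linearly. GI50 marks 50% less growth.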 Activity calls are given as the source filed them. No stated cut-off is given here; in the data, active = GI50 up to about 1.1 µM and inactive = higher. Non-standard residues stand in square brackets, D forms with d. Residues, ends and D or L forms follow the SMILES beside them. *: point of attachment. Benzoyl(4-OMe) = COc1ccc(C(=O)*)cc1; 2Thi = N[CH](Cc1cccs1)C(=O)O

On to `CCCc1cc(=O)oc2c3c(c4c(c12)OC(C)(C)C=C4)O[C@@H](C)[C@H](C)C3=O`, for which the GI50 in assay [1] is 19.7 µM (inactive); in [2], 17.1 µM (inactive); in assay [3], 17 µM (inactive); in assay [4], 19.5 µM (inactive); in [5] it was 13 µM (inactive); in assay [6] it was 4.99 µM (inactive). The GI50 in [7] was 19.5 µM (inactive); in assay [8] it was 13.6 µM (inactive); in [9], 17.7 µM (inactive); in assay [10] it was 10.2 µM (inactive); in assay [11], 21.9 µM (inactive); in assay [12] it was 13.4 µM (inactive). For the same compound, the GI50 in assay [13] was 17.2 µM (inactive); in assay [14], 18.2 µM (inactive); in [15] it was > 10 µM (inactive); in [16], 15.5 µM (inactive).

As to `O=C(NNC(=O)c1ccccc1O)c1cccc(Br)c1`, the GI50 in assay [1] is > 77.6 µM (inactive); in [17], 45.5 µM (inactive); in assay [2], 20.9 µM (inactive); in [3], > 100 µM (inactive); in [4], 30.2 µM (inactive); in assay [5] it was > 91.8 µM (inactive). In addition, the GI50 was 5.82 µM (inactive) in [6]; 37.2 µM (inactive) in assay [7]; > 71.8 µM (inactive) in [8]; > 70 µM (inactive) in assay [9]; 12.9 µM (inactive) in assay [10]; 37.9 µM (inactive) in assay [11]. In addition, the GI50 in assay [18] is 54.1 µM (inactive); in assay [12] it was 35 µM (inactive); in assay [13] it was 8.47 µM (inactive); in [14] it was 23.2 µM (inactive); in assay [15], > 100 µM (inactive); in assay [19] it was 47.3 µM (inactive). In addition, the GI50 in assay [16] is 44.8 µM (inactive).

Regarding `N#Cc1c(-c2ccccc2)c(C#N)c(=S)n(C2OCC(O)C(O)C2O)c1N` (stereo not drawn), the GI50 in assay [1], in assay [2], in assay [3], in assay [4], in assay [5] and in assay [6] was > 100 µM (inactive) throughout. Also, the GI50 in [7], in assay [8], in assay [9], in assay [10], in [11] and in [18] was > 100 µM (inactive) in each case. The GI50 in assay [12], in assay [13], in assay [14], in assay [19] and in assay [16] was > 100 µM (inactive) each time.

Take `Cc1ccc(/C=C2\NC(=S)N(CN3CCCCC3)C2=O)cc1`: the GI50 in assay [17] was 39.4 µM (inactive); in assay [2], 32.5 µM (inactive); in assay [3] it was > 100 µM (inactive); in assay [4] it was 36.1 µM (inactive); in assay [5], 79.3 µM (inactive); in [7], 85.3 µM (inactive). For the same compound, the GI50 is > 100 µM (inactive) in [8]; 83.6 µM (inactive) in [10]; 46.5 µM (inactive) in assay [11]; > 100 µM (inactive) in [18]; 28.9 µM (inactive) in [12]; 65.3 µM (inactive) in [13]. The GI50 in [14] is 55.7 µM (inactive); in assay [20] it was 0.416 µM (active); in assay [19], 33.3 µM (inactive); in assay [16] it was 61.4 µM (inactive).

`Nc1nc(NNc2cccc(F)c2)cc(=O)[nH]1`: the GI50 in [1] was > 100 µM (inactive); in assay [17], 51.6 µM (inactive); in assay [2], 42.4 µM (inactive); in assay [3] it was 48.3 µM (inactive); in [4], 81.3 µM (inactive); in [5], > 100 µM (inactive). The GI50 was 23.1 µM (inactive) in assay [6]; 74.8 µM (inactive) in [7]; > 100 µM (inactive) in assay [9]; 27 µM (inactive) in assay [10]; 25.9 µM (inactive) in assay [11]; 31.2 µM (inactive) in assay [12]. For the same compound, the GI50 in assay [13] was 24.9 µM (inactive); in assay [14], > 100 µM (inactive); in assay [16], 25.2 µM (inactive).

As for `COC(=O)/C=C(\C)C(=O)N(C)c1ccccc1I`, the GI50 in assay [1], in assay [17], in assay [2], in assay [3], in [4] and in assay [5] was > 100 µM (inactive) each time. Moreover, the GI50 in assay [7] was > 100 µM (inactive); in [8], 76.9 µM (inactive); in [10] it was 94 µM (inactive); in [11] it was > 100 µM (inactive); in assay [18], > 100 µM (inactive); in [12] it was > 100 µM (inactive). Besides, the GI50 in [13], in [14], in [20], in assay [15], in [19] and in assay [16] was > 100 µM (inactive) throughout.

Take `O=c1ccn(C2OC(CO)C(O)C2F)c(=O)n1Cc1ccccc1` (stereo not drawn): the GI50 in [1], in assay [2], in assay [3], in assay [4], in assay [5] and in assay [6] was > 100 µM (inactive) throughout. The GI50 in assay [7], in assay [8], in assay [9], in [10], in assay [11] and in assay [12] was > 100 µM (inactive) in each case. Further, the GI50 in [13], in assay [14], in [15], in [19] and in [16] was > 100 µM (inactive) each time.

As to `COc1ccc(C2C3=C(COC3=O)Oc3cc4c(cc32)OCO4)c(OC)c1` (stereo not drawn), the GI50 in assay [1] is 47.9 µM (inactive); in assay [17] it was 8.11 µM (inactive); in assay [2], 44.4 µM (inactive); in assay [3], 19 µM (inactive); in assay [4] it was 26.3 µM (inactive); in [5], 23 µM (inactive). The GI50 in [6] was 4.34 µM (inactive); in assay [7], 14.9 µM (inactive); in assay [8] it was 10.9 µM (inactive); in [9], 12.6 µM (inactive); in assay [10], 4.99 µM (inactive); in assay [11], 2.28 µM (inactive). The GI50 in [18] was 17.3 µM (inactive); in assay [12], 5.81 µM (inactive); in assay [13] it was 5.52 µM (inactive); in [14], 31.8 µM (inactive); in [15], 16.1 µM (inactive); in assay [19], 6.79 µM (inactive). Further, the GI50 in [16] was 6.75 µM (inactive).

For `CCOC(=O)[C@@H]1OC(c2ccccc2)O[C@H]1C(=O)OCC`, the GI50 in [1], in [17], in assay [2], in assay [3], in assay [4] and in assay [5] was > 100 µM (inactive) throughout. Further, the GI50 in assay [7], in assay [8], in [10], in assay [11], in assay [18] and in assay [12] was > 100 µM (inactive) throughout. The GI50 in [13], in [14], in [20], in assay [19] and in assay [16] was > 100 µM (inactive) each time.

Take `NC1=NC(=O)[C@H](CSCc2ccccc2)N1C(=O)OCc1ccccc1`: the GI50 in [1], in assay [17], in [2], in assay [3], in assay [4] and in assay [6] was > 100 µM (inactive) each time. The GI50 in assay [7], in assay [8], in assay [10], in [11], in assay [12] and in [13] was > 100 µM (inactive) throughout. Further, the GI50 in [14], in [15], in assay [19] and in [16] was > 100 µM (inactive) throughout.

`CCC(C)C(NC(=O)C(Cc1cccs1)NC(=O)C(CC(C)C)NC(=O)C(CC(C)C)NC(=O)C(CCCCN)NC(=O)C(CCCNC(=N)N)NC(=O)c1ccc(OC)cc1)C(=O)NC(CC(C)C)C(N)=O` (stereo not drawn) ({Benzoyl(4-OMe)}-RKLL[2Thi]IL-NH2; configuration not given here): the GI50 in assay [1], in [17], in assay [2], in assay [3], in assay [4] and in assay [5] was > 100 µM (inactive) each time. The GI50 in assay [7], in [8], in assay [9], in assay [10], in assay [11] and in assay [18] was > 100 µM (inactive) each time. The GI50 in assay [12], in [13], in assay [14], in assay [15], in assay [19] and in [16] was > 100 µM (inactive) in each case.
